Assay results reported in a melting point compilation (Tetko et al.).

| Compound | melting point |
| --- | --- |
| Cc1oc(-c2ccccc2)nc1CCl | 83 to 84 °C |
| NC=NO | 114 °C |
| c1cnc2c(SSc3cccc4cccnc34)cccc2c1 | 205 to 206 °C |
| Cc1nc(-c2ccc(CO)s2)cs1 | 67 to 69 °C |
| c1ccc(P(c2ccccc2)P(c2ccccc2)c2ccccc2)cc1 | 120 to 122 °C |
| CN(C)P(=O)(OP(=O)(N(C)C)N(C)C)N(C)C | 17 °C |
| NCc1ccc(Cl)nc1 | 30 °C |
| O=[N+]([O-])c1ccc(N/N=C2\Cc3c2ccc2ccccc32)c([N+](=O)[O-])c1 | 273 to 276 °C |
| O=S(=O)(Cl)c1cc(Cl)c(O)c(Cl)c1 | 119 °C |
| CC(=NNc1ccccc1)C(=O)c1cc(C(=O)C(C)=NNc2ccccc2)c([N+](=O)[O-])cc1[N+](=O)[O-] | 234 °C |
| CCC(=O)C(CC(C)N1CCOCC1)(c1ccccc1)c1ccccc1 (configuration not stated) | 75 °C |
| S=C(NCCN1CCOCC1)NC1CCCCC1 | 125 to 126 °C |
| O=C1c2ccccc2-c2c(O)cccc21 | 250 °C |
| N#C/C(=N\Nc1cccc(O)c1)c1nc2ccccc2[nH]1 | 238 °C |
| Oc1cc(F)cc(F)c1F | 29 °C |
| CC(C=CC=C(C)C=CC1=C(C)CCCC1(C)C)=CC=CC=C(C)C=CC=C(C)C=CC1=C(C)C(=O)CCC1(C)C | 179 °C |
| Cc1cc(N=Nc2ccccc2)ccc1N=Nc1ccccc1 | 109 °C |
| CC(CCC(=O)O)C1CCC2C3C(O)CC4CC(O)CCC4(C)C3CCC12C (configuration not stated) | 203 °C |
| O=C(O)c1ccc(N2C(=O)C3ON=C(C(=O)c4cccs4)C3C2=O)cc1 (configuration not stated) | 208 °C |
| CCCSc1ccc2[nH]c(NC(=O)OC)nc2c1 | 208 °C |
| COc1ccccc1-c1ccc(C=C2C(=O)NC(=O)NC2=O)o1 | 220 °C |
| CCOC(=O)c1cnc2c(c(C)nn2C)c1Oc1ccc(F)cc1 | 110 to 112 °C |

| Compound | melting point |
| --- | --- |
| CCOC | -113 °C |
| CN1CCOc2cc(S(=O)(=O)Cl)ccc21 | 66 to 68 °C |
| CCOC(=O)CNc1cc(NCC(=O)OCC)c(N)cc1N | > 360 °C |
| C=CC(C)O (configuration not stated) | -100 °C |
| CCC(C(=O)O)c1ccccc1C(=O)O (configuration not stated) | 170 °C |
| Cc1c(N/N=C(/C#N)c2nc(-c3ccccc3)cs2)c(=O)n(-c2ccccc2)n1C | 226 °C |
| CCOc1ccc(-c2nnc3n2NC(c2ccc(Cl)cc2)S3)cc1 (configuration not stated) | 109 °C |
| COc1ccc(C=O)cn1 | 46 to 54 °C |
| CCC1C(C=NC(C)(C)C)=NC(C)(C)N1O (configuration not stated) | 103 to 105 °C |
| Oc1c(F)c(F)cc(F)c1F | 38 °C |
| CCOC(=O)c1cccc(C(=O)OCC)c1 | 11.5 °C |
| O=C(O)Cc1cccc(I)c1 | 130 °C |
| N#CC(=CNc1ccccc1)c1ccccc1 | 156 °C |
| NC(=S)NC(N)=S | 181 to 183 °C |
| COC(=O)c1sc(SC)c(C#N)c1N | 207 °C |
| Nc1ccc2c(c1)CCCC2=O | 130 to 131 °C |
| CCCC(C)C1(CC)C(=O)NC(=S)NC1=O (configuration not stated) | 130 °C |
| Cc1cn(CCC(=O)O)c2ccccc12 | 87 to 88 °C |
| CCCOC(=O)c1ccccc1 | -51.6 °C |
| CC(C)[C@@H]1CC[C@H](C)C[C@@H]1OC(=O)c1cccc(C(=O)O)n1 | 120 °C |
| CCC1(N2CCCCC2)C(=O)NC(=O)NC1=O | 215 °C |
| CC1CCCC1C (configuration not stated) | -54 °C |

| Compound | melting point |
| --- | --- |
| Cc1cc(O)c(Cc2c(O)cc(C)oc2=O)c(=O)o1 | 248 to 250 °C |
| O=C(Nc1ccccc1[N+](=O)[O-])C(C(F)(F)F)C(F)(F)F | 156 °C |
| CNCC(O)c1cccc(NS(C)(=O)=O)c1 (configuration not stated) | 159 °C |
| O=Cc1cccc(-n2cccn2)c1 | 38 to 39 °C |
| FC(F)(F)C(F)(F)C(F)(F)F | -148 °C |
| COc1cc(NC(=S)N(C)C)c(C(c2ccc(C)o2)c2ccc(C)o2)cc1OC | 163 °C |
| Cc1nc(-c2ccc(Cl)cc2)sc1C(=O)CBr | 120 to 121 °C |
| CC(=O)Oc1nn(-c2ccc(Br)cc2)cc1Br | 77 °C |
| O=C(O)c1ccccc1-n1cccn1 | 190 to 193 °C |
| NC(=O)Nc1ccc(Br)cc1 | 226 °C |
| O=C(c1ccc2ccccc2c1)c1noc(-c2ccc([N+](=O)[O-])cc2)c1S(=O)(=O)c1ccccc1 | 131 °C |
| CC1(C)NC(=CC(=O)c2ccccc2)C(C)(C)N1O | 178 to 184 °C |
| CSc1ccccc1C(=O)O | 170 to 173 °C |
| CC(=O)c1ccc(-c2cccs2)s1 | 109 to 114 °C |
| CC(=O)OC1=C(C(C)C)C(=O)C2=C(C1=O)C1(C)CCCC(C)(C)C1CC2OC(C)=O (configuration not stated) | 121 °C |
| CC(C)c1nsc(N)n1 | 119 to 120 °C |
| COc1ccc2c(c1)[nH]c1c(C)nccc12 | 273 °C |
| COC1CCC(CC(=O)O)CC1 (configuration not stated) | 78 °C |
| Cc1cc[nH]c(=O)c1 | 130 °C |
| CCC(c1ccccc1)c1c(O)oc2ccccc2c1=O (configuration not stated) | 180 °C |
| ClC(Br)C(Cl)Br (configuration not stated) | -26 °C |
| Cc1cc2c(c(C)c1C)C(=O)C2 | 103 °C |

| Compound | melting point |
| --- | --- |
| N#Cc1cccc(C(=O)Cc2cccc(Cl)c2)c1 | 87.5 to 90.8 °C |
| Cc1cc(C#N)ccc1F | 55 °C |
| Nc1ccc(Oc2ccc(N)cc2)cc1 | 191 °C |
| c1nnn[nH]1 | 157 °C |
| Ic1cc(I)c(I)cc1I | 254 °C |
| CC(=O)OC(OC(C)=O)c1cccc([N+](=O)[O-])c1 | 72 °C |
| Cc1n[nH]c(C)c1Cl | 118 °C |
| O=C(Nc1ccccc1CCCCc1ccccc1NC(=O)c1ccccc1)c1ccccc1 | 210 to 211 °C |
| Cc1nccc2c1[nH]c1ccccc12 | 236 °C |
| O=C1NC(=O)C(=Cc2ccc(-c3ccc(Br)cc3)o2)C(=O)N1 | 255 °C |
| CCSc1ncccc1C(=O)Cl | 53 to 55 °C |
| CCOC(=O)C1=C(N)CCCC1 | 70 to 74 °C |
| COc1c(Cl)ccc(Cl)c1Cl | 45 °C |
| COc1nsc(Nc2ccc(Cl)cc2)n1 | 247 to 249 °C |
| C[Si](C)(C)C1c2ccccc2-c2ccccc21 | 96.5 °C |
| C#CC#C | -36.4 °C |
| O=[N+]([O-])c1ccccc1-c1onc(-c2ccccc2)c1-c1ccccc1 | 127 °C |
| O=C1/C(=N\Nc2ccc(Br)cc2)C(C(F)(F)F)=NN1c1ccccc1 | 175 °C |
| CC1=C(C)C(=O)C(C)=C(C)C1=O | 112 °C |
| O=C(CBr)c1cccc(C(=O)CBr)c1 | 91 °C |
| COc1ccc(C#N)cc1OC | 67 °C |
| CCCCCCCCOC(=O)CCCCCCCCC(=O)OCCCCCCCC | -67 °C |

| Compound | melting point |
| --- | --- |
| CCc1ccsc1 | -89.1 °C |
| Cc1c(C(N)=O)[nH]c2ccccc12 | 170 to 172 °C |
| O=C1OC(c2ccccc2)Cc2ccccc21 (configuration not stated) | 88 to 90 °C |
| NNc1ncccc1[N+](=O)[O-] | 165 °C |
| O=C(O)CC(CC(=O)O)c1ccc(Cl)cc1 | 166 °C |
| Cc1nc2ccccn2c1CO | 157 to 158 °C |
| CCOc1cccc(/C=C/C(=O)O)c1 | 133 °C |
| CC1=NN(CN2CCCCC2)C(=O)/C1=N\Nc1ccc(Cl)cc1Cl | 122 to 124 °C |
| O=C(O)c1cc(F)c(Cl)c([N+](=O)[O-])c1Cl | 193 to 197 °C |
| O=Cc1ccc(N2CCCC2)c([N+](=O)[O-])c1 | 103 to 105 °C |
| N#C/C(=C/c1ccc(F)cc1)c1nc(-c2ccc(Cl)cc2)cs1 | 184 °C |
| Oc1cc(O)ncn1 | 300 °C |
| c1ccc(-c2ccc3ncccc3c2)cc1 | 110 °C |
| C[C@]12CCC(=O)C=C1CCC[C@@H]2O | 57 °C |
| COC(=O)c1cnc(S)n1C | 207 °C |
| Cc1cc(Cl)ncc1[N+](=O)[O-] | 36 to 40 °C |
| CCC(O)(CC)C(=O)O | 78 to 82 °C |
| CCOC(=O)C1=C(CBr)NC(=O)NC1C (configuration not stated) | 148 °C |
| O=Cc1ccccc1OCC(=O)O | 133 °C |
| Cn1nc(-c2ccc(S(=O)(=O)Cl)s2)cc1C(F)(F)F | 83 to 86 °C |
| CC(=O)OC1=c2ccc([N+](=O)[O-])cc2=NC1=c1ccc(=C2N=c3cc([N+](=O)[O-])ccc3=C2OC(C)=O)cc1 | 280 °C |
| Nc1ccc(N)nc1 | 110 °C |

| Compound | melting point |
| --- | --- |
| CC(=O)Nc1ccc2c(c1)CCC2 | 106 to 108 °C |
| O=C1NC(=S)NC(=O)C1=NNc1ccc(Cl)cc1 | 300 °C |
| CC(C)=CCCC(C)=CC=CC(C)=CC=CC(C)=CC=CC=C(C)C=CC=C(C)C=CC=C(C)CCC=C(C)C | 175 °C |
| COC(=O)/C(=C/c1ccccc1)Cc1ccccc1 | 27 to 28 °C |
| C=CC(N)CCC(=O)O (configuration not stated) | 209 °C |
| ClC(Cl)C(Cl)C(Cl)Cl | -10 °C |
| O=C(Oc1c(F)c(F)c(F)c(F)c1F)c1sccc1C1OCCO1 | 55.5 to 59.5 °C |
| CN1C(CC(=O)c2ccccc2)CCCC1CC(O)c1ccccc1 (configuration not stated) | 130 °C |
| O=Cc1ccc2occc2c1 | 37 to 38 °C |
| Cc1ccc(C(c2ccc(C)o2)c2ccccc2[N+](=O)[O-])o1 | 80 °C |
| O=C(O)[C@@H]1CCN1C(=O)OCC1c2ccccc2-c2ccccc21 | 135 °C |
| O=Cc1ccccc1OCCN1CCOCC1 | 43 to 45 °C |
| O=C(O)c1csc(-c2ccncc2)n1 | 304 to 307 °C |
| O=[N+]([O-])c1ccccc1CCO | 2 °C |
| CC(=O)C(=NNc1ccc(C(=O)O)cc1)C(C)=O | 215 °C |
| O=S(=O)(O)c1cccc2cnccc12 | 300 °C |
| NC(=O)NN=Cc1cccc2c(Br)cccc12 | 257 to 259 °C |
| CC1OC(O)C(O)C(O)C1O (configuration not stated) | 144 to 145 °C |
| COc1ccc(Br)cc1CO | 68 to 73 °C |
| O=CCO | 97 °C |
| CC1=CC(C(=O)O)c2ccccc21 (configuration not stated) | 139 °C |
| CCOC(=O)c1[nH]nc(C)c1C(=O)OCC | 98 to 99 °C |
